According to PubChem BioAssay (NCI):
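A five-concentration, 48-hour dose response in 96-well plates underlies each endpoint, interpolated linearly between surrounding concentrations. GI50 = concentration required for 50% inhibition of growth. TGI marks complete inhibition of growth.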

Key:
Experiment in all cases: growth of human tumour cells (NCI), 48 h
[1] = tested on: A498 renal
[2] = tested on: HCC-2998 colon
[3] = tested on: HCT-15 colon
[4] = tested on: HT29 colon
[5] = tested on: MDA-MB-435
[6] = tested on: SF-539 CNS
[7] = tested on: SK-OV-3 ovarian

SMILES | TGI [1] | TGI [2] | TGI [3] | TGI [4] | TGI [5] | TGI [6] | TGI [7] | GI50 [3] | GI50 [4] | GI50 [5] | GI50 [7] | GI50 [2] | GI50 [6]
CCOC(=O)C1(C/C=C/CBr)Cc2ccccc2C1=O (stereo not drawn) | 32.6 µM | 21.3 µM | 5.73 µM | 11.8 µM | 3.19 µM | 3.39 µM | 21.5 µM | – | – | – | – | – | –
COc1ccc(C2CC(c3c(O)ccc4ccccc34)=NN2C(C)=O)cc1OC (stereo not drawn) | 63.4 µM | 54.3 µM | > 100 µM | > 100 µM | 69.2 µM | 48.9 µM | > 100 µM | – | – | – | – | – | –
S=C1Nc2ccccc2SC1c1ccccc1 (stereo not drawn) | – | – | > 100 µM | > 100 µM | > 100 µM | – | > 100 µM | – | – | – | – | – | –
COC(=O)c1cc(=O)nc2sc3cccc(C)c3n12 | – | – | > 100 µM | > 100 µM | > 100 µM | > 100 µM | > 100 µM | – | – | – | – | – | –
N#CCCC1C(C#N)C2(Cl)CC1(Cl)C(Cl)=C2Cl (stereo not drawn) | > 10 µM | > 10 µM | > 10 µM | > 10 µM | > 10 µM | > 10 µM | > 10 µM | – | – | – | – | – | –
ClCCN1CCC2(CC1)SSC1(CCN(CCCl)CC1)S2 | > 100 µM | – | > 100 µM | > 100 µM | > 100 µM | 56.3 µM | 98.7 µM | – | – | – | – | – | –
COc1cc(C2c3cc4c(cc3OC(N3CCOCC3)C2C)OCO4)ccc1O (stereo not drawn) | 51.4 µM | 52.5 µM | > 100 µM | > 100 µM | > 26.3 µM | 35.6 µM | – | – | – | – | – | – | –
CC1CCC(n2c3cnccc3c3cnc(Nc4ccc5c(n4)CCN(C(=O)CO)C5)nc32)CC1 (stereo not drawn) | – | – | > 100 µM | > 100 µM | > 100 µM | – | > 100 µM | 418 nM | 596 nM | 660 nM | > 100 µM | – | –
O=C1c2ccccc2-c2c1c1ccccc1c(=O)n2CCNCCNCCNCCn1c2c(c3ccccc3c1=O)C(=O)c1ccccc1-2 | – | 6.11 µM | 2.11 µM | – | 4.7 µM | 1.58 µM | – | 579 nM | – | 993 nM | – | 591 nM | 273 nM
CCOC(=O)CSc1c(C(=O)OCC)c(=O)n(-c2ccccc2)c(=S)n1-c1ccccc1 | – | – | > 100 µM | > 100 µM | > 100 µM | – | > 100 µM | – | – | – | – | – | –
Cc1ccc(-c2n[nH]c(=O)n2N2C(=O)c3ccccc3C2=O)cc1 | – | > 100 µM | > 100 µM | > 100 µM | > 100 µM | > 100 µM | – | – | – | – | – | – | –
CC(C)(C)OC(=O)NCCCCC1NC(=O)[C@@H]2Cc3c([nH]c4ccccc34)C(C3CCCCC3)N2C1=O (stereo partly drawn) | > 100 µM | 67.3 µM | > 100 µM | > 100 µM | > 100 µM | – | > 100 µM | – | – | – | – | – | –
O=c1[nH]c(Nc2cccc(CC(F)(F)F)c2)nc2nc[nH]c12 | > 100 µM | > 100 µM | > 100 µM | > 100 µM | > 100 µM | > 100 µM | > 100 µM | – | – | – | – | – | –
COc1ccc2c(c1)/C(=C/CCN(C)C)c1ccccc1S2 | > 100 µM | > 100 µM | > 100 µM | > 100 µM | > 100 µM | – | > 100 µM | – | – | – | – | – | –
COC(=O)c1c(C)cccc1C1CN=NC12Cc1ccc(C)cc1C2=O (stereo not drawn) | > 100 µM | > 100 µM | > 100 µM | > 100 µM | > 100 µM | > 100 µM | – | – | – | – | – | – | –
N#CC1(C#N)N[C@@H](c2ccsc2)[C@H]2C(=O)N(c3ccccc3)C(=O)[C@H]21 | > 100 µM | – | – | > 100 µM | > 100 µM | – | > 100 µM | – | – | – | – | – | –
COc1cc(Br)cc2cc(-c3cn4ccsc4n3)c(=O)oc12 | – | 24 µM | > 100 µM | > 100 µM | 51.2 µM | > 100 µM | > 100 µM | – | – | – | – | – | –
c1csc(-c2ccc(-c3cccc4nsnc34)s2)c1 | > 100 µM | > 100 µM | > 100 µM | – | > 100 µM | > 100 µM | > 100 µM | – | – | – | – | – | –
O=C1CCCc2cc3c(cc21)CC1(Cc2ccccc2C1)C3 | 67 µM | 39.3 µM | 24.4 µM | 8.6 µM | 4.61 µM | 18.7 µM | 97.3 µM | – | – | – | – | – | –
CC(=O)NC(Cc1ccc(O)cc1)C(=O)O (stereo not drawn) | > 100 µM | > 100 µM | > 100 µM | > 100 µM | > 100 µM | – | > 100 µM | – | – | – | – | – | –
NC(=O)NCCCC(NC(=O)OCCCCn1ccc(=O)[nH]c1=O)C(=O)O (stereo not drawn) | – | > 100 µM | > 100 µM | > 100 µM | > 100 µM | > 100 µM | > 100 µM | – | – | – | – | – | –
C[C@]12CCC(O)CC1=CC[C@@H]1[C@@H]2CC[C@]2(C)C(=O)[C@H](n3ccnc3)C[C@@H]12 (stereo partly drawn) | > 100 µM | – | > 100 µM | > 100 µM | > 100 µM | > 100 µM | – | – | – | – | – | – | –
NC(N)=N/N=C/c1c(-c2ccc(N)cc2)nc2sccn12 | 68.2 µM | – | > 100 µM | 56.8 µM | 94 µM | 63.9 µM | 64 µM | – | – | – | – | – | –
Nc1nc(Cl)cc(NCC2(CO)CC(=O)C2)n1 | – | > 100 µM | > 100 µM | > 100 µM | > 100 µM | > 100 µM | > 100 µM | – | – | – | – | – | –
C[C@@H](NC(=O)[C@@H]1C[C@]1(C)COC(=O)c1cc([N+](=O)[O-])cc([N+](=O)[O-])c1)c1cccc2ccccc12 | > 100 µM | > 100 µM | > 100 µM | > 100 µM | > 100 µM | – | > 100 µM | – | – | – | – | – | –
N#Cc1c(-c2ccccc2)/c(=C\Nc2cccc(C(F)(F)F)c2)c(=O)n2c1nc1ccccc12 | > 100 µM | > 100 µM | > 100 µM | – | > 100 µM | 37.8 µM | 91.6 µM | – | – | – | – | – | –
[N-]=[N+]=NC[C@H]1OCO[C@H](CN=[N+]=[N-])[C@@H](OCCOCCCl)[C@@H]1OCCOCCCl | – | > 100 µM | > 100 µM | > 100 µM | > 100 µM | > 100 µM | > 100 µM | – | – | – | – | – | –
COc1ccc2cc(NC(=O)N/N=C\c3ccc([N+](=O)[O-])cc3)ccc2c1 | > 100 µM | > 100 µM | > 100 µM | > 100 µM | > 100 µM | – | > 100 µM | – | – | – | – | – | –
CN1C(=O)C2CCC(=O)N2c2cccnc21 (stereo not drawn) | – | > 100 µM | > 100 µM | > 100 µM | > 100 µM | > 100 µM | – | – | – | – | – | – | –
